Measurements reported in US12398111B2, “Triazine compounds and pharmaceutical use thereof” (Japan Tobacco Inc., priority 2014, dated 2025).

The compounds below were run against T1, human mPGES-1 (Homo sapiens, UniProt O14684) (assay: Evaluation of human mPGES-1 enzyme inhibitory activity (PGE2 measured by HTRF, microsome fraction of CHO-S cells expressing human mPGES-1)). Conditions: IC50 value; microsome fraction of CHO-S cells expressing human mPGES-1, PGE2 by HTRF.
T1 construct: made in house; host or cells: FreeStyle CHO-S cells (Chinese hamster ovary), transient transfection with pcDNA3.1(+)/human mPGES-1; microsome fraction used
T1 sequence (O14684 1-152): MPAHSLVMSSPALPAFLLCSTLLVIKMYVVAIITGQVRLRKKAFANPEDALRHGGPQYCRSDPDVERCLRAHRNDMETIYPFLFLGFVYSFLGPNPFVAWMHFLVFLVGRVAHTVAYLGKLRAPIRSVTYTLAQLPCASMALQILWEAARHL
Assay type: biochemical
In short: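 Enzyme source: microsomes from CHO-S cells transfected with human mPGES-1 and cultured 48 hr, diluted to 5 μg/mL protein in reduced GSH (12.5 mmol/L KPB solution). Test articles were in 0.1 mol/L potassium phosphate pH 7.4, final DMSO 2% (v/v). PGE2 formed was quantified by HTRF.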

Compound | IC50 [nM]
Cc1cccc(COc2cccc(C(F)(F)F)c2-c2nc(O)nc(-c3ccc(C#Cc4ccccc4OC(F)(F)F)cc3)n2)n1 [Example 2-129] | 32
Cc1cccc(COc2cccc(C(F)(F)F)c2-c2nc(O)nc(-c3ccc(C#Cc4ccc(OC(F)(F)F)cc4)cc3)n2)n1 [Example 2-130] | 35
Cc1cc(C)c(-c2nc(O)nc(-c3ccc(C(F)(F)F)cc3)n2)c(C)c1 [Example 3-1] | 484
COc1c(CO)ccc(Cl)c1-c1nc(O)nc(-c2ccc(C(F)(F)F)cc2)n1 [Example 3-2] | 148
COc1c(C)ccc(Cl)c1-c1nc(O)nc(-c2ccc(C(F)(F)F)cc2)n1 [Example 3-3] | 141
CCOc1c(C)ccc(Cl)c1-c1nc(O)nc(-c2ccc(C(F)(F)F)cc2)n1 [Example 3-4] | 202
COc1c(CNC(C)=O)ccc(Cl)c1-c1nc(O)nc(-c2ccc(C(F)(F)F)cc2)n1 [Example 3-5] | 341
Cc1c(CO)ccc(Cl)c1-c1nc(O)nc(-c2ccc(C(F)(F)F)cc2)n1 [Example 3-6] | 56
CC(=O)NCc1ccc(Cl)c(-c2nc(O)nc(-c3ccc(C(F)(F)F)cc3)n2)c1C [Example 3-7] | 19
Cc1ccc(Cl)c(-c2nc(O)nc(-c3ccc(C(F)(F)F)cc3)n2)c1OCCO [Example 3-9] | 776
Cc1c(CNS(=O)(=O)C(C)(C)C)ccc(Cl)c1-c1nc(O)nc(-c2ccc(C(F)(F)F)cc2)n1 [Example 3-10] | 16
COc1ccc(F)c(Cl)c1-c1nc(O)nc(-c2ccc(C(F)(F)F)cc2)n1 [Example 3-11] | 93
COc1ccc(F)c(Cl)c1-c1nc(O)nc(-c2ccc(OCc3ccccc3)cc2)n1 [Example 3-12] | 28
Cc1ccc(Cl)c(-c2nc(O)nc(-c3ccc(C(F)(F)F)cc3)n2)c1OCc1ccccn1 [Example 3-13] | 34

Compounds with a lower IC50, results first:

IC50 [nM] | Compound
1.8 | Oc1cccc(COc2cccc(C(F)(F)F)c2-c2nc(O)nc(-c3ccc(C#Cc4ccccc4)cc3)n2)n1 [Example 2-119]
4.1 | COc1ccnc(COc2cccc(C(F)(F)F)c2-c2nc(O)nc(-c3ccc(C#Cc4ccccc4)cc3)n2)c1 [Example 2-120]
14 | Oc1nc(-c2ccc(C#Cc3ccccc3)cc2)nc(-c2c(OCc3cccc(C(F)(F)F)n3)cccc2C(F)(F)F)n1 [Example 2-121]
15 | Oc1nc(-c2ccc(C#Cc3ccccc3)cc2)nc(-c2c(OCc3cc(C(F)(F)F)ccn3)cccc2C(F)(F)F)n1 [Example 2-122]
12 | Cc1cccc(COc2cccc(C(F)(F)F)c2-c2nc(O)nc(-c3ccc(C#Cc4cccc(Cl)c4)cc3)n2)n1 [Example 2-123]
12 | Cc1cccc(COc2cccc(C(F)(F)F)c2-c2nc(O)nc(-c3ccc(C#Cc4ccc(Cl)cc4)cc3)n2)n1 [Example 2-124]
4.3 | COc1cccc(C#Cc2ccc(-c3nc(O)nc(-c4c(OCc5cccc(C)n5)cccc4C(F)(F)F)n3)cc2)c1 [Example 2-125]
4.6 | COc1ccc(C#Cc2ccc(-c3nc(O)nc(-c4c(OCc5cccc(C)n5)cccc4C(F)(F)F)n3)cc2)cc1 [Example 2-126]
6.2 | Cc1ccc(C#Cc2ccc(-c3nc(O)nc(-c4c(OCc5cccc(C)n5)cccc4C(F)(F)F)n3)cc2)cc1 [Example 2-127]
13 | CCc1ccc(C#Cc2ccc(-c3nc(O)nc(-c4c(OCc5cccc(C)n5)cccc4C(F)(F)F)n3)cc2)cc1 [Example 2-128]
1 | Cc1c(CNC(=O)C(C)(C)C)ccc(Cl)c1-c1nc(O)nc(-c2ccc(C(F)(F)F)cc2)n1 [Example 3-8]
2 | Cc1c(CNC(=O)C(C)(C)C(F)(F)F)ccc(Cl)c1-c1nc(O)nc(-c2ccc(CC(C)C)cc2)n1 [Example 3-14]
5.1 | CCOC(=O)NCc1ccc(Cl)c(-c2nc(O)nc(-c3ccc(CC(C)C)cc3)n2)c1C [Example 3-15]
2.1 | CCCc1cccc(-c2nc(O)nc(-c3cc(CNC(=O)C(C)(C)C(F)(F)F)c(C)cc3Cl)n2)c1 [Example 3-16]
0.8 | Cc1cc(Cl)c(-c2nc(O)nc(-c3ccc(OCC4CC4)cc3)n2)cc1CNC(=O)C(C)(C)C(F)(F)F [Example 3-17]
